# Source: PMC11233931, “Remodeling tumor‐associated macrophage for anti‐cancer effects by rational design of irreversible inhibition of mitogen‐activated protein kinase‐activated protein kinase 2” (MedComm, 2024)
# What was measured:
# Experiment in all cases: Eurofins kinase selectivity profile against 380 other human recombinant kinases (Table S2)
# Type in all cases: biochemical
# [1] = biological target: T1, 380 human recombinant protein kinases (Homo sapiens, UniProt O75385); conditions: ULK1(h), read-out: Inhibition rate (%)
# T1 construct: purchased Eurofins (Celle Lévescault)
# T1 sequence (O75385 1-1050): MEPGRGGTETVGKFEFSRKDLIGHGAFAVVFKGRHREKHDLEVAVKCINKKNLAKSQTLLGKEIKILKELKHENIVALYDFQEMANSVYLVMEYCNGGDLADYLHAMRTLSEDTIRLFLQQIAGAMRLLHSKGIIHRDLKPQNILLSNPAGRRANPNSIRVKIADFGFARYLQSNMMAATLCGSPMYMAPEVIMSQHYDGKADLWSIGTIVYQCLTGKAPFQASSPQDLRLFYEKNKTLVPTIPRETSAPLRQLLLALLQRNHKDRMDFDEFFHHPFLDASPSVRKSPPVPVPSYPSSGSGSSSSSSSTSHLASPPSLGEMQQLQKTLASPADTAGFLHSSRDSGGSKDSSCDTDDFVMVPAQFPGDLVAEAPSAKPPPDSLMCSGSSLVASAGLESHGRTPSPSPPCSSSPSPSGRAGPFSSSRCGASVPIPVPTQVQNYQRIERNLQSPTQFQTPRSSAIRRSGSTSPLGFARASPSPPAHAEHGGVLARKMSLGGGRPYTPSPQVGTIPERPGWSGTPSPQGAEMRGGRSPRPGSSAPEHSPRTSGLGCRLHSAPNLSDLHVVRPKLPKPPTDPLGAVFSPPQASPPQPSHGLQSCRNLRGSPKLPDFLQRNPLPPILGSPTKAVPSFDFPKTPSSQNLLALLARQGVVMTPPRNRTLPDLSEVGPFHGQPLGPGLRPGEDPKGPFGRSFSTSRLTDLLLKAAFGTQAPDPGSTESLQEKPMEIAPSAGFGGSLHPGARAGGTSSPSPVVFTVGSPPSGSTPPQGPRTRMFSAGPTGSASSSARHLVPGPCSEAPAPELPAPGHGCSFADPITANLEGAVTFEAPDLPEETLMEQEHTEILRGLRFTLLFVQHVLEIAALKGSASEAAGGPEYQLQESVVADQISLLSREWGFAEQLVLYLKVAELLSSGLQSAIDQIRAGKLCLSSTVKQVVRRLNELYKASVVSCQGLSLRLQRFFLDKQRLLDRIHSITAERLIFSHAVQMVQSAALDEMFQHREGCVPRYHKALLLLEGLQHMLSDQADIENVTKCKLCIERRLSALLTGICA
# How it was run: (§1)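 Profiling against 380 human recombinant kinases carried out by Eurofins at various compound concentrations.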
# [2] = biological target: T2, 380 human recombinant protein kinases (Homo sapiens, UniProt Q09013); conditions: DMPK(h), read-out: Inhibition rate
# T2 construct: purchased Eurofins (Celle Lévescault)
# T2 sequence (Q09013 1-629): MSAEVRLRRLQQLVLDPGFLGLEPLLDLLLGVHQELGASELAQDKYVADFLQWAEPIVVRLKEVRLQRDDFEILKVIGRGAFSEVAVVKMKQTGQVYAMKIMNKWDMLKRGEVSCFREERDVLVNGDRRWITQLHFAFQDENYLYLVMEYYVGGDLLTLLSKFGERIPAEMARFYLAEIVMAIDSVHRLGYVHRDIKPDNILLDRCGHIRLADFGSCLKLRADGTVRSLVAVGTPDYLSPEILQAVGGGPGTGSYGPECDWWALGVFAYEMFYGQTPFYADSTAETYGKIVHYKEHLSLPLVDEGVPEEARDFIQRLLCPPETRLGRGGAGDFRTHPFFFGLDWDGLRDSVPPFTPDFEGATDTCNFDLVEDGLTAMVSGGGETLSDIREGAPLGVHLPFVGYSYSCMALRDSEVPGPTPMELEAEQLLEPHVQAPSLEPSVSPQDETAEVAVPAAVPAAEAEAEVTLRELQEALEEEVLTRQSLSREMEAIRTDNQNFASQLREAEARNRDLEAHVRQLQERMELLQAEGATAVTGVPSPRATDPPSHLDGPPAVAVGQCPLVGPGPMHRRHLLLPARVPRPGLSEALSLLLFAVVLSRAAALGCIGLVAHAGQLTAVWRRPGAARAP
# How it was run: as §1
# [3] = biological target: T3, 380 human recombinant protein kinases (Homo sapiens, UniProt Q99755); conditions: PIP5K1α(h), read-out: Inhibition rate (%)
# T3 construct: purchased Eurofins (Celle Lévescault)
# How it was run: as §1
# T3 sequence (Q99755 whole entry): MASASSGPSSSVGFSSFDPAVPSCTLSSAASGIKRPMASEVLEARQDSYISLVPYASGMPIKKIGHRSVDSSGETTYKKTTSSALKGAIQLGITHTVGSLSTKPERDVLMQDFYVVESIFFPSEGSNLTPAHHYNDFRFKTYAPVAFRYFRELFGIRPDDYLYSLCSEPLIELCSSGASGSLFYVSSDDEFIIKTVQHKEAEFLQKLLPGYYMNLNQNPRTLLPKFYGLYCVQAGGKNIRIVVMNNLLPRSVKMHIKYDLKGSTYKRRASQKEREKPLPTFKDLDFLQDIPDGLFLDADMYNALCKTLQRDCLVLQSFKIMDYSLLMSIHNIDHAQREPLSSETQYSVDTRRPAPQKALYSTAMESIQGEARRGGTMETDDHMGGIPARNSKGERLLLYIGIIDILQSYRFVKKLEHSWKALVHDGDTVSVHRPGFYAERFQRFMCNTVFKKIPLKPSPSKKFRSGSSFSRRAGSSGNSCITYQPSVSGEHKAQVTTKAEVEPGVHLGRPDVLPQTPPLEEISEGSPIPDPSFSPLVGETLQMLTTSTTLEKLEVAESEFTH
compound,measurement,setting,value
C=CC(=O)Nc1cc(-c2cc(-c3cc4c([nH]3)CCNC4=O)ccn2)ccc1OC(F)(F)F [compound 11],inhibition at 0.01 µM,[1]; 10 nM,6%
same,inhibition at 0.1 µM,[1]; 100 nM,-8%
same,inhibition at 1 µM,[1]; 1000 nM,-3%
same,inhibition at 0.01 µM,[2]; 10 nM,-5%
same,inhibition at 0.1 µM,[2]; 100 nM,1%
same,inhibition at 1 µM,[2]; 1000 nM,7%
same,inhibition at 0.01 µM,[3]; 10 nM,-4%
same,inhibition at 0.1 µM,[3]; 100 nM,-3%
same,inhibition at 1 µM,[3]; 1000 nM,-2%
